Experimental data: patent publication US9096543B2, “Nuclear transport modulators and uses thereof” (Karyopharm Therapeutics Inc., priority 2012, dated 2015)
“Also recorded” adds a separate entry of the source.

How the values were obtained:
[1] = tested on: inflammation-related CRM1 cargo proteins: IκB, Nrf2, HMGB1, FoxP3, FOXO1a, RxRα, PPARγ and NFκB (p65 subunit); experiment: Immunofluorescence of nuclear localization of inflammation-related CRM1 cargos in HeLa and THP-1 cells; format: cell-based, human; details: 1-10 μM Compound 1 with 20 ng/mL TNFα, 4-24 h
Experimental: HeLa and THP-1 (human acute monocytic leukemia) cells were treated with inflammation inducing factor, TNFα, alone or in combination with 1-10 μM of Compound 1 for 4-24 h, and then were analyzed by immunofluorescence (IF) for the nuclear localization of inflammation-related CRM1 cargo proteins: IκB, Nrf2, HMGB1, FoxP3, FOXO1a, RxRα, PPARγ and NFκB (p65 subunit).
For the detection of IkB, Nrf2, RxRα and PPARγ localization, cells were pre-incubated with 10 μM Compound 1 for 30 minutes, followed by incubation with 20 ng/mL TNFα for 4 hrs in serum free media. For detection of HMGB1, FoxP3 and Foxo1A, cells were pre-incubated with 1 μM of Compound 1 for 2 h, followed by incubation with 20 ng/mL TNFα for 24 hours. […] IκB was detected by the primary rabbit monoclonal (E130) antibody from Abcam (ab32518); Nrf2 was detected by the primary rabbit polyclonal antibody from Santa Cruz (sc722); RxR alpha was detected by the primary rabbit polyclonal antibody from Santa Cruz (sc553); PPAR gamma was detected by the primary rabbit monoclonal […] antibody from Cell Signaling (#2443); Foxo1A was detected by the primary rabbit monoclonal [C29H4] antibody from Cell Signaling (#2880); HMGB1 was detected by the primary rabbit polyclonal antibody from Abcam (ab18256); FoxP3 was detected by the primary rabbit polyclonal antibody from Abeam (ab10563). […]

[2] = tested on: BCCI injury to the medial frontal cortex; experiment: Morris Water Maze after bilateral controlled cortical impact (BCCI) injury in rats; format: in vivo, Sprague Dawley rats
Experimental: Bilateral controlled cortical impact (BCCI) injury to the medial frontal cortex (MFC) of male Sprague Dawley rats was induced by a cortical contusion device. After CCI any cortical surface hemorrhaging was controlled, and the fascia and scalp were sutured. Sham-operated rats were anesthetized, mounted in the stereotaxic apparatus, and a craniotomy was performed.
Compound 10.2, 0.4, and 0.6 mg/mL was suspended in vehicle (0.6% w/v Pluronic® F-68 and 0.6% w/v PVP K-29/32 in water) and administered p.o at a concentration of 10 mL/kg, 16 h before injury and 2 h after injury, and administrations were continued for 4 days. Control rats received equivalent injections of the vehicle for Compound 1, at the same time points.
The Morris Water Maze (MWM) test is a spatial navigation task that measures learning and memory in rodents using visual cues. Subjects learn over the course of days to find a hidden platform. A MWM test was conducted two weeks after injury. Male Sprague Dawley rats were allowed to swim in the pool until they reached the platform located in the southwest quadrant of a tank, or until 90 seconds had elapsed. Behavior was tracked by a video camera hanging from above the pool and recorded and analyzed using video track software (ANY-maze).

[3] = tested on: PMA-induced psoriasis; experiment: PMA-induced psoriasis in female BALB/c mice; format: in vivo; details: topical
Experimental: Twenty-four (24) female BALB/c mice, aged 6 to 8 weeks with a body weight between 22 and 30 g were used. The mice were randomized into […]. The grouping of animals was as follows: Group I (Naïve; ethanol), Group II (PMA; ethanol), Group III (PMA; Compound 210 μM) and Group IV (PMA; betamethasone). Twenty (20)μL of PMA (4 μg/20 μL of acetone) was applied topically on the upper surface of pinna of ear of all animals in Group II to Group IV. PMA was applied daily on left ear and on alternate days (M-W-F) on right ear from Day 1 to Day 9. Thirty (30) minutes after application of PMA, vehicle or standard compound (betamethasone) or Compound 2 was applied topically to the ears of animals from different groups. […] Animals were observed daily for a period of 12 days for any treatment related symptoms. Basal ear thickness was recorded in all animals (before application of PMA) using digital screw gauge at time T0 (Day 1). […] Commercially available 100% DMSO (LR Grade) and ethanol (LR Grade) were used to prepare the formulations. PMA was prepared by dissolving 10 mg of PMA in 50.0 mL of acetone. Compound 2 was prepared by dissolving 1.47 mg of Compound 2 in 300 μL of 100% DMSO.

[4] = tested on: diet-induced obesity; experiment: Diet-induced obesity (DIO) model; format: in vivo, Sprague-Dawley rats
Experimental: Male Sprague-Dawley rats of age 2 months were placed on a high fat diet (Research Diets Inc., product code D12492, 60% kcal % fat) for 3 months. A group of age-matched rats were fed normal lab chow (LabDiet 5001, ˜13% kcal % fat), these animals served as controls for DIO group.
At age 4 months, and 2 months into placement of high fat diet, all rats were allocated into 3 groups of N=7 based on equivalent body weights and food intakes. Body weights and food and water intakes were measured at approximately the same time each day. On treatment days, dosing was at approximately 2 hours before lights off.
The DIO control group was treated with vehicle (oral, 10 mL/kg dose volume; 0.5% Pluronic F68 and 0.5% PVP K29/32 in water) on each weekday. The Compound 21.5 mg/kg group was orally treated on each weekday throughout the treatment phase (dose 10 mL/kg dose volume; 0.5% Pluronic F68 and 0.5% PVP K29/32 in water). The Compound 2 3 mg/kg group (10 mL/kg dose volume; 0.5% Pluronic F68 and 0.5% PVP K29/32 in water) was orally treated initially once daily on each weekday for week 1, then twice weekly (Monday, Wednesday) for week 2. During treatment weeks 3 and 4, Compound 2 3 mg/kg treatment continued twice weekly, except dosing was on Monday and Thursday.
Prior to the treatment phase, 3 days baseline data were collected. The treatment phase was for 4 weeks. A washout phase of 10 days was also included.
Compound 2 was supplied in powder form. […] Active percentage was adjusted using BEW of 1.437 and prepared by dissolving into 0.5% w/v Pluronic F-68 and 0.5% w/v PVP K-29-32 vehicle solution. The vehicle solution was prepared on a weekly basis while Compound 2 was prepared fresh every 2 days and stored at +4° C. Animals were dosed at a volume of 10 mL/kg. Individual doses were calculated based on the most recent body weights to provide the proper mg/kg/day dosage.

Structure (SMILES) | nuclear localization of inflammation-related CRM1 cargo proteins [1] | days after injury with significant effect on latency ([2]; 4 mg/kg p.o.) | latency to find the hidden platform (MWM acquisition) compared to vehicle-treated BCCI-injured rats ([2]; 2, 4 and 6 mg/kg p.o.) | anti-psoriatic activity [3] | PMA-induced increases in ear thickness and disease activity index (DAI) ([3]; 10 μM daily, prominent Days 6-8, diminished Day 10 and beyond) | daily food intake and body weight compared to DIO control group ([4]; 1.5-3 mg/kg oral, 28 day treatment period) | body weight gain (percentage of body weight change from study day 3) compared to DIO controls ([4]; 1.5 and 3 mg/kg, treatment days 7 (study day 10) and 14 (study day 17)) | body weight over the washout phase ([4]; washout phase, both Compound 2 groups)
CC(C)(C)C(=O)NNC(=O)/C=C\n1cnc(-c2cc(C(F)(F)F)cc(C(F)(F)F)c2)n1 [Compound 1, (Z)-3-(3-(3,5-bis(trifluoromethyl)phenyl)-1H-1,2,4-triazol-1-yl)-N′-pivaloylacrylohydrazide] | demonstrate nuclear localization of the above cargos | 18 | dose dependent decrease in the latency to find the hidden platform | – | – | – | – | –
O=C(/C=C\n1cnc(-c2cc(C(F)(F)F)cc(C(F)(F)F)c2)n1)NNC(=O)CN1CCOCC1 [Compound 2, (Z)-3-(3-(3,5-bis(trifluoromethyl)phenyl)-1H-1,2,4-triazol-1-yl)-N′-(2-morpholinoacetyl)acrylohydrazide] | – | – | – | statistically significant anti-psoriatic activity | prominent reduction in PMA-induced increases in (i) left and right ear thickness, and (ii) left and right ear DAI | dose-related decrease in daily food intake and body weight; also recorded: decreases daily food intake in a dose dependent manner | significant reduction in weight gain | remained lower than DIO controls
